≈ marks a conversion by molar mass, not a printed value.
Experiments:
Type in all cases: functional
[1] = system: Aspergillus niger; assay: Antifungal activity against Aspergillus niger MTCC 2546 at 500 ug/ml after 48 hr by cup-plate method; details: MTCC 2546, 48 h, read-out: DIZ
[2] = system: Pseudomonas aeruginosa; assay: Antibacterial activity against Pseudomonas aeruginosa MTCC 424 after 24 to 48 hr by tube dilution method
[3] = system: Micrococcus luteus; assay: Antibacterial activity against Micrococcus luteus MTCC 1538 at 250 ug/ml after 48 hr by cup-plate method; details: MTCC 1538, 48 h, read-out: DIZ
[4] = system: Penicillium chrysogenum; assay: Antifungal activity against Penicillium chrysogenum MTCC 161 at 250 ug/ml after 48 hr by cup-plate method; details: MTCC 161, 48 h, read-out: DIZ
[5] = system: Aspergillus niger; assay: Antifungal activity against Aspergillus niger MTCC 2546 at 1250 ug/ml after 48 hr by cup-plate method; details: MTCC 2546, 48 h, read-out: DIZ
[6] = system: Escherichia coli; assay: Antibacterial activity against Escherichia coli MTCC 1573 at 750 ug/ml after 48 hr by cup-plate method; details: MTCC 1573, 48 h, read-out: DIZ
[7] = system: Bacillus pumilus; assay: Antibacterial activity against Bacillus pumilus MTCC 1456 at 250 ug/ml after 48 hr by cup-plate method; details: MTCC 1456, 48 h, read-out: DIZ
[8] = system: Bacillus pumilus; assay: Antibacterial activity against Bacillus pumilus MTCC 1456 at 100 ug/ml after 48 hr by cup-plate method; details: MTCC 1456, 48 h, read-out: DIZ
[9] = system: Aspergillus niger; assay: Antifungal activity against Aspergillus niger MTCC 2546 at 100 ug/ml after 48 hr by cup-plate method; details: MTCC 2546, 48 h, read-out: DIZ
[10] = system: Bacillus subtilis; assay: Antibacterial activity against Bacillus subtilis MTCC 441 at 1250 ug/ml after 48 hr by cup-plate method; details: MTCC 441, 48 h, read-out: DIZ
[11] = system: Bacillus pumilus; assay: Antibacterial activity against Bacillus pumilus MTCC 1456 at 1250 ug/ml after 48 hr by cup-plate method; details: MTCC 1456, 48 h, read-out: DIZ
[12] = system: Micrococcus luteus; assay: Antibacterial activity against Micrococcus luteus MTCC 1538 after 24 to 48 hr by tube dilution method
[13] = system: Staphylococcus aureus; assay: Antibacterial activity against Staphylococcus aureus MTCC 1430 after 24 to 48 hr by tube dilution method
[14] = system: Escherichia coli; assay: Antibacterial activity against Escherichia coli MTCC 1573 at 250 ug/ml after 48 hr by cup-plate method; details: MTCC 1573, 48 h, read-out: DIZ
[15] = system: Pseudomonas aeruginosa; assay: Antibacterial activity against Pseudomonas aeruginosa MTCC 424 at 750 ug/ml after 48 hr by cup-plate method; details: MTCC 424, 48 h, read-out: DIZ
[16] = system: Aspergillus niger; assay: Antifungal activity against Aspergillus niger MTCC 2546 at 250 ug/ml after 48 hr by cup-plate method; details: MTCC 2546, 48 h, read-out: DIZ
[17] = system: Pseudomonas fluorescens; assay: Antibacterial activity against Pseudomonas fluorescens MTCC 2421 at 1250 ug/ml after 48 hr by cup-plate method; details: MTCC 2421, 48 h, read-out: DIZ
[18] = system: Staphylococcus aureus; assay: Antibacterial activity against Staphylococcus aureus MTCC 1430 at 500 ug/ml after 48 hr by cup-plate method; details: MTCC 1430, 48 h, read-out: DIZ
[19] = system: Escherichia coli; assay: Antibacterial activity against Escherichia coli MTCC 1573 at 1250 ug/ml after 48 hr by cup-plate method; details: MTCC 1573, 48 h, read-out: DIZ
[20] = system: Penicillium chrysogenum; assay: Antifungal activity against Penicillium chrysogenum MTCC 161 at 1250 ug/ml after 48 hr by cup-plate method; details: MTCC 161, 48 h, read-out: DIZ
[21] = system: Micrococcus luteus; assay: Antibacterial activity against Micrococcus luteus MTCC 1538 at 750 ug/ml after 48 hr by cup-plate method; details: MTCC 1538, 48 h, read-out: DIZ
[22] = system: Aspergillus niger; assay: Antifungal activity against Aspergillus niger MTCC 2546 after 24 to 48 hr by tube dilution method
[23] = system: Penicillium chrysogenum; assay: Antifungal activity against Penicillium chrysogenum MTCC 161 at 1000 ug/ml after 48 hr by cup-plate method; details: MTCC 161, 48 h, read-out: DIZ
[24] = system: Penicillium chrysogenum; assay: Antifungal activity against Penicillium chrysogenum MTCC 161 after 24 to 48 hr by tube dilution method
[25] = system: Bacillus subtilis; assay: Antibacterial activity against Bacillus subtilis MTCC 441 at 500 ug/ml after 48 hr by cup-plate method; details: MTCC 441, 48 h, read-out: DIZ
[26] = system: Pseudomonas fluorescens; assay: Antibacterial activity against Pseudomonas fluorescens MTCC 2421 at 1000 ug/ml after 48 hr by cup-plate method; details: MTCC 2421, 48 h, read-out: DIZ
[27] = system: Penicillium chrysogenum; assay: Antifungal activity against Penicillium chrysogenum MTCC 161 at 500 ug/ml after 48 hr by cup-plate method; details: MTCC 161, 48 h, read-out: DIZ
[28] = system: Escherichia coli; assay: Antibacterial activity against Escherichia coli MTCC 1573 after 24 to 48 hr by tube dilution method
[29] = system: Bacillus pumilus; assay: Antibacterial activity against Bacillus pumilus MTCC 1456 at 500 ug/ml after 48 hr by cup-plate method; details: MTCC 1456, 48 h, read-out: DIZ
[30] = system: Penicillium chrysogenum; assay: Antifungal activity against Penicillium chrysogenum MTCC 161 at 100 ug/ml after 48 hr by cup-plate method; details: MTCC 161, 48 h, read-out: DIZ
[31] = system: Bacillus pumilus; assay: Antibacterial activity against Bacillus pumilus MTCC 1456 at 750 ug/ml after 48 hr by cup-plate method; details: MTCC 1456, 48 h, read-out: DIZ
[32] = system: Bacillus pumilus; assay: Antibacterial activity against Bacillus pumilus MTCC 1456 at 1000 ug/ml after 48 hr by cup-plate method; details: MTCC 1456, 48 h, read-out: DIZ
[33] = system: Bacillus pumilus; assay: Antibacterial activity against Bacillus pumilus MTCC 1456 after 24 to 48 hr by tube dilution method
[34] = system: Penicillium chrysogenum; assay: Antifungal activity against Penicillium chrysogenum MTCC 161 at 750 ug/ml after 48 hr by cup-plate method; details: MTCC 161, 48 h, read-out: DIZ
[35] = system: Micrococcus luteus; assay: Antibacterial activity against Micrococcus luteus MTCC 1538 at 1000 ug/ml after 48 hr by cup-plate method; details: MTCC 1538, 48 h, read-out: DIZ
[36] = system: Escherichia coli; assay: Antibacterial activity against Escherichia coli MTCC 1573 at 1000 ug/ml after 48 hr by cup-plate method; details: MTCC 1573, 48 h, read-out: DIZ
[37] = system: Micrococcus luteus; assay: Antibacterial activity against Micrococcus luteus MTCC 1538 at 1250 ug/ml after 48 hr by cup-plate method; details: MTCC 1538, 48 h, read-out: DIZ
[38] = system: Staphylococcus aureus; assay: Antibacterial activity against Staphylococcus aureus MTCC 1430 at 750 ug/ml after 48 hr by cup-plate method; details: MTCC 1430, 48 h, read-out: DIZ
[39] = system: Pseudomonas fluorescens; assay: Antibacterial activity against Pseudomonas fluorescens MTCC 2421 at 250 ug/ml after 48 hr by cup-plate method; details: MTCC 2421, 48 h, read-out: DIZ
[40] = system: Pseudomonas aeruginosa; assay: Antibacterial activity against Pseudomonas aeruginosa MTCC 424 at 500 ug/ml after 48 hr by cup-plate method; details: MTCC 424, 48 h, read-out: DIZ
[41] = system: Aspergillus niger; assay: Antifungal activity against Aspergillus niger MTCC 2546 at 1000 ug/ml after 48 hr by cup-plate method; details: MTCC 2546, 48 h, read-out: DIZ
[42] = system: Micrococcus luteus; assay: Antibacterial activity against Micrococcus luteus MTCC 1538 at 500 ug/ml after 48 hr by cup-plate method; details: MTCC 1538, 48 h, read-out: DIZ
[43] = system: Bacillus subtilis; assay: Antibacterial activity against Bacillus subtilis MTCC 441 after 24 to 48 hr by tube dilution method
[44] = system: Pseudomonas fluorescens; assay: Antibacterial activity against Pseudomonas fluorescens MTCC 2421 at 750 ug/ml after 48 hr by cup-plate method; details: MTCC 2421, 48 h, read-out: DIZ
[45] = system: Pseudomonas fluorescens; assay: Antibacterial activity against Pseudomonas fluorescens MTCC 2421 at 100 ug/ml after 48 hr by cup-plate method; details: MTCC 2421, 48 h, read-out: DIZ

O=[N+]([O-])c1ccc(C2CC(c3cccc4ccccc34)=NN2)cc1 (stereo not drawn)
zone of inhibition at 500 µg/mL [1]: 10 mm
MIC [2]: 30 µg/mL (≈ 94.5 µM)
zone of inhibition at 250 µg/mL [3]: 10 mm
zone of inhibition at 250 µg/mL [4]: 9 mm
zone of inhibition at 1250 µg/mL [5]: 18 mm
zone of inhibition at 750 µg/mL [6]: 13 mm
zone of inhibition at 250 µg/mL [7]: 9 mm
zone of inhibition at 100 µg/mL [8]: 8 mm
zone of inhibition at 100 µg/mL [9]: 8 mm
zone of inhibition at 1250 µg/mL [10]: 19 mm
zone of inhibition at 1250 µg/mL [11]: 22 mm
MIC [12]: 30 µg/mL (≈ 94.5 µM)
MIC [13]: 50 µg/mL (≈ 158 µM)
zone of inhibition at 250 µg/mL [14]: 10 mm
zone of inhibition at 750 µg/mL [15]: 12 mm
zone of inhibition at 250 µg/mL [16]: 9 mm
zone of inhibition at 1250 µg/mL [17]: 17 mm
zone of inhibition at 500 µg/mL [18]: 11 mm
zone of inhibition at 1250 µg/mL [19]: 18 mm
zone of inhibition at 1250 µg/mL [20]: 17 mm
zone of inhibition at 750 µg/mL [21]: 12 mm
MIC [22]: 50 µg/mL (≈ 158 µM)
zone of inhibition at 1000 µg/mL [23]: 15 mm
MIC [24]: 50 µg/mL (≈ 158 µM)
zone of inhibition at 500 µg/mL [25]: 13 mm
zone of inhibition at 1000 µg/mL [26]: 15 mm
zone of inhibition at 500 µg/mL [27]: 10 mm
MIC [28]: 200 µg/mL (≈ 630 µM)
zone of inhibition at 500 µg/mL [29]: 10 mm
zone of inhibition at 100 µg/mL [30]: 8 mm
zone of inhibition at 750 µg/mL [31]: 14 mm
zone of inhibition at 1000 µg/mL [32]: 17 mm
MIC [33]: 30 µg/mL (≈ 94.5 µM)
zone of inhibition at 750 µg/mL [34]: 14 mm
zone of inhibition at 1000 µg/mL [35]: 13 mm
zone of inhibition at 1000 µg/mL [36]: 15 mm
zone of inhibition at 1250 µg/mL [37]: 15 mm
zone of inhibition at 750 µg/mL [38]: 13 mm
zone of inhibition at 250 µg/mL [39]: 9 mm
zone of inhibition at 500 µg/mL [40]: 11 mm
zone of inhibition at 1000 µg/mL [41]: 16 mm
zone of inhibition at 500 µg/mL [42]: 11 mm
MIC [43]: 30 µg/mL (≈ 94.5 µM)
zone of inhibition at 750 µg/mL [44]: 14 mm

O=[N+]([O-])c1ccc(C2CC(c3cccc4ccccc34)=NN2c2ccccc2)cc1 (stereo not drawn)
zone of inhibition at 500 µg/mL [1]: 13 mm
MIC [2]: 50 µg/mL (≈ 127 µM)
zone of inhibition at 250 µg/mL [3]: 8 mm
zone of inhibition at 250 µg/mL [4]: 12 mm
zone of inhibition at 1250 µg/mL [5]: 23 mm
zone of inhibition at 750 µg/mL [6]: 13 mm
zone of inhibition at 250 µg/mL [7]: 9 mm
zone of inhibition at 100 µg/mL [9]: 10 mm
zone of inhibition at 1250 µg/mL [10]: 21 mm
zone of inhibition at 1250 µg/mL [11]: 18 mm
MIC [12]: 200 µg/mL (≈ 508 µM)
MIC [13]: 150 µg/mL (≈ 381 µM)
zone of inhibition at 250 µg/mL [14]: 10 mm
zone of inhibition at 750 µg/mL [15]: 14 mm
zone of inhibition at 250 µg/mL [16]: 12 mm
zone of inhibition at 1250 µg/mL [17]: 19 mm
zone of inhibition at 500 µg/mL [18]: 11 mm
zone of inhibition at 1250 µg/mL [19]: 18 mm
zone of inhibition at 1250 µg/mL [20]: 18 mm
zone of inhibition at 750 µg/mL [21]: 11 mm
MIC [22]: 30 µg/mL (≈ 76.2 µM)
zone of inhibition at 1000 µg/mL [23]: 16 mm
MIC [24]: 30 µg/mL (≈ 76.2 µM)
zone of inhibition at 500 µg/mL [25]: 15 mm
zone of inhibition at 1000 µg/mL [26]: 16 mm
zone of inhibition at 500 µg/mL [27]: 13 mm
MIC [28]: 50 µg/mL (≈ 127 µM)
zone of inhibition at 500 µg/mL [29]: 10 mm
zone of inhibition at 100 µg/mL [30]: 10 mm
zone of inhibition at 100 µg/mL [45]: 8 mm
zone of inhibition at 750 µg/mL [31]: 14 mm
zone of inhibition at 1000 µg/mL [32]: 16 mm
MIC [33]: 150 µg/mL (≈ 381 µM)
zone of inhibition at 750 µg/mL [34]: 15 mm
zone of inhibition at 1000 µg/mL [35]: 13 mm
zone of inhibition at 1000 µg/mL [36]: 15 mm
zone of inhibition at 1250 µg/mL [37]: 17 mm
zone of inhibition at 750 µg/mL [38]: 12 mm
zone of inhibition at 250 µg/mL [39]: 9 mm
zone of inhibition at 500 µg/mL [40]: 12 mm
zone of inhibition at 1000 µg/mL [41]: 21 mm
zone of inhibition at 500 µg/mL [42]: 9 mm
MIC [43]: 50 µg/mL (≈ 127 µM)
zone of inhibition at 750 µg/mL [44]: 13 mm
